Results on eight compounds are retold here after PubChem BioAssay (NCI).

Among the test systems are COLO 205 colon; EKVX NSCLC; HCT-15 colon; HOP-92 NSCLC; K-562 leukemia; LOX IMVI melanoma; MDA-MB-231 breast; RPMI-8226 leukemia; RXF 393 renal; SF-268 CNS.
What all share (assay): NCI tumour cell line growth inhibition, 48 h

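All cell lines were grown in 96-well plates and treated with compound for 48 hours. GI50: concentration for 50% inhibition of growth. The concentration for full growth arrest is given as TGI.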 A value given as a limit tells only on which side of the number the result lay.

With `CCCN1CCC(Oc2cc(Nc3nc(Nc4cccc(F)c4C(N)=O)c4cc[nH]c4n3)c(OC)cc2Cl)CC1`, the GI50 was 0.417 µM with COLO 205 colon; 3.1 µM in the experiment on EKVX NSCLC; 1.44 µM in the experiment with HCT-15 colon; 0.309 µM in the experiment on HOP-92 NSCLC; 0.62 µM in the experiment on K-562 leukemia; 1.57 µM with LOX IMVI melanoma. Further, the GI50 in the experiment with MDA-MB-231 breast was 2.16 µM; in the experiment on RPMI-8226 leukemia it was 2.11 µM; in the experiment on RXF 393 renal, 2.28 µM; in the experiment with SF-268 CNS it was 3.79 µM. In addition, the TGI in the experiment on COLO 205 colon is 0.806 µM; in the experiment on EKVX NSCLC it was 7.41 µM; in the experiment on HCT-15 colon, 6.84 µM; with HOP-92 NSCLC it was 3.42 µM; in the experiment with K-562 leukemia, 1.73 µM; with LOX IMVI melanoma it was 5.31 µM. For the same compound, the TGI was 5.52 µM in the experiment on MDA-MB-231 breast, 6.35 µM in the experiment on RPMI-8226 leukemia, 6.03 µM with RXF 393 renal and 8.32 µM in the experiment on SF-268 CNS.
On to `Clc1cccc(-c2cc(-c3ccc4c(c3)OCCO4)[nH]n2)c1`, for which the GI50 is 1.42 µM with COLO 205 colon; 11.5 µM in the experiment with EKVX NSCLC; 1.11 µM in the experiment on HCT-15 colon; 7.74 µM with HOP-92 NSCLC; 1.04 µM with K-562 leukemia; 4.43 µM in the experiment with LOX IMVI melanoma. Also, the GI50 in the experiment on MDA-MB-231 breast was 7.75 µM; in the experiment on RPMI-8226 leukemia, 6.38 µM; in the experiment with RXF 393 renal it was 7.34 µM; in the experiment on SF-268 CNS it was 12.4 µM. Besides, the TGI with COLO 205 colon is 30.1 µM; with EKVX NSCLC it was 45.6 µM; in the experiment with HCT-15 colon, 33.5 µM; with HOP-92 NSCLC, 42.8 µM; with K-562 leukemia, 250 µM; with LOX IMVI melanoma, 39.4 µM. Besides, the TGI in the experiment with MDA-MB-231 breast amounted to 47.6 µM; in the experiment with RPMI-8226 leukemia, 250 µM; with RXF 393 renal it was 46.1 µM; in the experiment with SF-268 CNS, 57.1 µM.
Turning to `O=C(O)C1CCCN1` (stereo not given), the TGI in the experiment on COLO 205 colon, with EKVX NSCLC, in the experiment on HCT-15 colon, in the experiment on HOP-92 NSCLC, in the experiment on K-562 leukemia and in the experiment on LOX IMVI melanoma was over 100 µM each time. Also, the TGI in the experiment with MDA-MB-231 breast, with RPMI-8226 leukemia, in the experiment on RXF 393 renal and with SF-268 CNS was over 100 µM in each case.
Turning to `N#Cc1nc2cc(Cl)c(Cl)cc2nc1-c1ccc(Cl)cc1`, the GI50 in the experiment with COLO 205 colon is over 76.3 µM; in the experiment with EKVX NSCLC, over 100 µM; in the experiment on HCT-15 colon it was over 71.9 µM; in the experiment on HOP-92 NSCLC, 27.8 µM; with K-562 leukemia, over 56.1 µM; in the experiment with LOX IMVI melanoma, 71 µM. For the same compound, the GI50 in the experiment with MDA-MB-231 breast was 22.3 µM; in the experiment with RPMI-8226 leukemia, 24.3 µM; in the experiment with RXF 393 renal, 11.2 µM; with SF-268 CNS, 27.4 µM. For the same compound, the TGI in the experiment on COLO 205 colon, in the experiment on EKVX NSCLC, with HCT-15 colon, in the experiment with HOP-92 NSCLC, with K-562 leukemia and in the experiment with LOX IMVI melanoma was over 100 µM throughout. For the same compound, the TGI was over 73.4 µM with MDA-MB-231 breast, over 100 µM in the experiment with RPMI-8226 leukemia, over 42.6 µM with RXF 393 renal and over 72.7 µM in the experiment with SF-268 CNS.
As to `C/C(=C1\C(=O)Nc2ccccc21)c1cccc(/C(C)=C2/C(=O)Nc3ccccc32)n1`, the GI50 with COLO 205 colon is 7.32 µM; with EKVX NSCLC, 0.692 µM; with HCT-15 colon, 4.21 µM; in the experiment on HOP-92 NSCLC, 15.7 µM; in the experiment with K-562 leukemia it was 4.35 µM; in the experiment on LOX IMVI melanoma, 8.4 µM. Also, the GI50 in the experiment on MDA-MB-231 breast is 11.5 µM; with RPMI-8226 leukemia it was 4.87 µM; with RXF 393 renal, 12.3 µM; in the experiment with SF-268 CNS, 7.42 µM. In addition, the TGI with COLO 205 colon is over 100 µM; in the experiment with EKVX NSCLC, 5.4 µM; in the experiment on HCT-15 colon, 34.9 µM; in the experiment with HOP-92 NSCLC it was 85.3 µM; in the experiment with K-562 leukemia, over 100 µM; in the experiment with LOX IMVI melanoma it was 31 µM. The TGI in the experiment on MDA-MB-231 breast is 74.7 µM; in the experiment with RPMI-8226 leukemia it was over 100 µM; in the experiment on RXF 393 renal, 58.7 µM; in the experiment with SF-268 CNS, 71.8 µM.
Take `COc1cccc2c1C(=O)c1c(O)c3c(c(O)c1C2=O)C[C@@](O)(/C(C)=N/NC(=O)c1cccc([N+](=O)[O-])c1)C[C@@H]3OC1CC(N)C(O)C(C)O1` (stereo not given in full): the GI50 with COLO 205 colon was 0.208 µM; with EKVX NSCLC, 0.495 µM; in the experiment on HCT-15 colon it was 1.57 µM; with HOP-92 NSCLC, 0.201 µM; in the experiment on K-562 leukemia, 0.356 µM; in the experiment with LOX IMVI melanoma, 0.146 µM. Also, the GI50 in the experiment on MDA-MB-231 breast was 1.59 µM; in the experiment on RPMI-8226 leukemia, 0.2 µM; in the experiment with RXF 393 renal it was 0.494 µM; with SF-268 CNS, 0.269 µM. The TGI amounted to 1.5 µM in the experiment with COLO 205 colon; 4.66 µM in the experiment on EKVX NSCLC; 14.2 µM in the experiment with HCT-15 colon; 4.71 µM with HOP-92 NSCLC; 5.16 µM in the experiment on K-562 leukemia; 15.4 µM in the experiment with LOX IMVI melanoma. Moreover, the TGI in the experiment on MDA-MB-231 breast was found to be 21.3 µM; in the experiment with RPMI-8226 leukemia, 1.86 µM; in the experiment on RXF 393 renal, 2.21 µM; with SF-268 CNS, 2.26 µM.
For `Cc1cc(NC(=O)NCCCOc2ccc(N3C(N)=NC(N)=NC3(C)C)cc2Cl)ccc1S(=O)(=O)F`, the GI50 is 1.17 µM in the experiment on COLO 205 colon; 1.32 µM in the experiment on EKVX NSCLC; 39.2 µM with HCT-15 colon; 2.85 µM in the experiment with HOP-92 NSCLC; 0.318 µM in the experiment on K-562 leukemia; 0.479 µM in the experiment with LOX IMVI melanoma. For the same compound, the GI50 in the experiment on MDA-MB-231 breast was 7.16 µM; in the experiment on RPMI-8226 leukemia, 5.78 µM; in the experiment on RXF 393 renal, 13.5 µM; in the experiment with SF-268 CNS, 0.569 µM. In addition, the TGI was 17.5 µM in the experiment on COLO 205 colon; over 100 µM in the experiment on EKVX NSCLC; over 100 µM in the experiment with HCT-15 colon; 45.6 µM in the experiment on HOP-92 NSCLC; over 100 µM in the experiment on K-562 leukemia; over 100 µM in the experiment with LOX IMVI melanoma. Also, the TGI is over 100 µM in the experiment with MDA-MB-231 breast, over 100 µM in the experiment on RPMI-8226 leukemia, over 100 µM in the experiment with RXF 393 renal and over 58.9 µM with SF-268 CNS.
With `Clc1ccc2c(NCCCCNc3nc(N4CCOCC4)nc4ccccc34)ccnc2c1`, the GI50 is 1.87 µM in the experiment on COLO 205 colon; 3.7 µM in the experiment with EKVX NSCLC; 2.75 µM with HCT-15 colon; 1.88 µM in the experiment on HOP-92 NSCLC; 1.43 µM with K-562 leukemia; 1.73 µM in the experiment with LOX IMVI melanoma. Besides, the GI50 was 2.1 µM with MDA-MB-231 breast, 2.8 µM in the experiment with RPMI-8226 leukemia, 1.65 µM with RXF 393 renal and 3.29 µM in the experiment on SF-268 CNS. In addition, the TGI was 4.49 µM in the experiment with COLO 205 colon; 15.3 µM in the experiment on EKVX NSCLC; 11.4 µM with HCT-15 colon; 4.29 µM in the experiment with HOP-92 NSCLC; 11.2 µM in the experiment on K-562 leukemia; 3.25 µM with LOX IMVI melanoma. Moreover, the TGI with MDA-MB-231 breast came out at 4.5 µM; in the experiment on RPMI-8226 leukemia, 7.21 µM; with RXF 393 renal, 3.73 µM; in the experiment on SF-268 CNS it was 13.7 µM.
